We go through 75 compounds from PubChem BioAssay AID1949 (Southern Research Institute, 2009).

Broadly, the IC50 is the concentration needed to halve the response being measured.

In brackets after ≈: the same amount, converted by molar mass. Results filed as inconclusive are left out. Activity calls are given as the source filed them. How the calls were made is not given here.

The test system of the assay is M. tuberculosis H37Rv growth inhibition. The assay can be described thus: Mycobacterium tuberculosis H37Rv growth inhibition, cell based, confirmatory dose response (AID 1949).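 Further: bacteria grown 7 days with compound before Alamar blue readout.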

With `CCCc1cc2c(=O)c(-c3ccc4c(c3)OCCCO4)coc2cc1OCC(=O)OCC`, the IC50 was 0.3 µg/mL (≈ 0.684 µM).

As for `O=C(CCN1CCc2ccccc2C1)c1ccc2c(c1)OCCO2`, the IC50 was 14.9 µg/mL (≈ 46 µM).

`CC1=Nc2c(ccc3cccnc23)C1(C)C`: the concentration for half-maximal inhibition (IC50) was 0.19 µg/mL (≈ 0.904 µM).

Consider `CCCc1ccc(OC(=O)c2ccc(OC)c(OC)c2)cc1`, for which the half-maximal inhibitory concentration (IC50) is 2.37 µg/mL (≈ 7.89 µM).

On to `N#C/C(=C\C=C\c1ccco1)c1nc2c(s1)CCCC2`, for which the 50% inhibitory concentration (IC50) was 9.33 µg/mL (≈ 33 µM).

As to `COC(=O)c1ccc(CSc2nnc(-c3ccncc3)o2)o1`, the IC50 was > 50 µg/mL (inactive).

Turning to `CCOC(=O)c1c(NC(=O)c2c(F)c(F)c(F)c(F)c2F)sc(C(N)=O)c1C`, the half-maximal inhibitory concentration (IC50) was under 0.1 µg/mL.

`COc1cccc(Nc2nc(-c3ccccn3)cs2)c1`: the IC50 is 0.17 µg/mL (≈ 0.6 µM).

Consider `Cc1ccc(NC(=O)COc2cccc(C=O)c2)cc1Cl`, for which the half-inhibitory concentration (IC50) was 5.9 µg/mL (≈ 19.4 µM).

For `COc1cc(NC(=O)c2ccc3c(c2)OCCO3)ccc1NC(=O)c1ccccc1Cl`, the concentration for half-maximal inhibition (IC50) was 0.66 µg/mL (≈ 1.5 µM).

On to `C=C(C)Cn1c(=S)[nH]c2sc3c(c2c1=O)CCc1ccccc1-3`, for which the IC50 is > 50 µg/mL (inactive).

In the case of `CCSCC(=O)N1CCN(c2nnc(-c3ccccc3)c3ccccc23)CC1`, the concentration for half-maximal inhibition (IC50) is 14.5 µg/mL (≈ 36.9 µM).

`CC(C)(C)c1ccc(-c2noc(-c3cccnc3)n2)cc1`: the IC50 was 4.34 µg/mL (≈ 15.5 µM).

Take `CC(C)OC(=O)C(C)Oc1ccc2c(-c3ccccc3)cc(=O)oc2c1` (stereo not given): the 50% inhibitory concentration (IC50) was 1.63 µg/mL (≈ 4.63 µM).

As to `CCOC(=O)c1ccc(NC(=O)CSc2nnc(-c3ccc(OC)cc3)o2)cc1`, the IC50 was 0.17 µg/mL (≈ 0.411 µM).

Take `CC(=O)Oc1cccc2ccc(/C=C/c3cccc(Br)c3)nc12`: the IC50 is under 0.1 µg/mL.

As to `O=C(CSc1ccccc1)c1ccc([N+](=O)[O-])cc1`, the IC50 was 9.78 µg/mL (≈ 35.8 µM).

With `CN(Cc1ccccc1)C(=S)NC(=O)c1cccs1`, the IC50 was 0.74 µg/mL (≈ 2.55 µM).

On to `Cc1ccc(S(=O)(=O)NC(=O)Oc2cccc3cccnc23)cc1`, for which the IC50 is 3.32 µg/mL (≈ 9.7 µM).

As to `CCCCc1ccc(NC(=O)CSCc2ccc(OC)cc2)cc1`, the half-maximal inhibitory concentration (IC50) was 12.9 µg/mL (≈ 37.5 µM).

Take `Cc1cc(C(C)(C)C)ccc1OCCCCn1ccnc1`: the concentration for half-maximal inhibition (IC50) is 1.4 µg/mL (≈ 4.89 µM).

Turning to `COc1ccc(OCC(=O)Nc2cccc(Cl)c2)cc1`, the IC50 is 2.78 µg/mL (≈ 9.53 µM).

Regarding `Clc1ccc(Nc2nc(-c3ccccn3)cs2)nc1`, the IC50 was under 0.1 µg/mL.

In the case of `COC(=O)CSc1[nH]c2ccc(Br)cc2c1[N+](=O)[O-]`, the IC50 was > 50 µg/mL (inactive).

As to `CC(C)(C)c1cnc(NC(=O)c2ccccc2O)s1`, the half-inhibitory concentration (IC50) is 1.06 µg/mL (≈ 3.84 µM).

Regarding `O=C(/C=C\c1ccccc1)Nc1cccc(-c2nc3ccccc3[nH]2)c1`, the 50% inhibitory concentration (IC50) is 7.66 µg/mL (≈ 22.6 µM).

Turning to `COc1cc2cc(-c3nc4ccccc4[nH]3)c(N)nc2cc1OC`, the IC50 is 3.24 µg/mL (≈ 10.1 µM).

For `Cc1ccc2nc(-c3cccc(NC(=O)c4cccs4)c3)[nH]c2c1`, the half-inhibitory concentration (IC50) was 7.08 µg/mL (≈ 21.2 µM).

Turning to `COc1ccccc1-n1c(=O)oc2ccc(Cl)cc2c1=O`, the concentration for half-maximal inhibition (IC50) was 4.95 µg/mL (≈ 16.3 µM).

As for `O=C(COc1ccc(Cl)cc1Cl)Oc1cccc2cccnc12`, the 50% inhibitory concentration (IC50) is 5.88 µg/mL (≈ 16.9 µM).

For the compound `N#Cc1ccc(NC(=O)C23CC4CC(CC(C4)C2)C3)cc1`, the half-inhibitory concentration (IC50) was 23.7 µg/mL (≈ 84.6 µM).

Take `CC(=O)Oc1c(/C=C(\C#N)C(N)=O)[nH]c2ccccc12`: the concentration for half-maximal inhibition (IC50) was 5.98 µg/mL (≈ 22.2 µM).

With `Cc1ccc(CSCC(=O)Nc2ccc(Cl)c(Cl)c2)cc1`, the IC50 is 3.06 µg/mL (≈ 8.99 µM).

Regarding `Cc1cc(Nc2cccc(Cl)c2)nc(NCc2ccccc2)n1`, the 50% inhibitory concentration (IC50) was 1.39 µg/mL (≈ 4.28 µM).

`COC(=O)COc1ccc(NC(=O)c2ccccc2I)cc1`: the IC50 was 0.62 µg/mL (≈ 1.51 µM).

On to `O=[N+]([O-])c1c(-n2cccn2)nn(-c2ccccc2)c1C(Cl)Cl`, for which the IC50 is 3.09 µg/mL (≈ 9.14 µM).

Regarding `CCN(CC)S(=O)(=O)c1ccc(Cl)c(C(=O)Oc2cccc3cccnc23)c1`, the 50% inhibitory concentration (IC50) is 2.45 µg/mL (≈ 5.85 µM).

`CCc1ccc(Oc2nc([N+](=O)[O-])nn2C)cc1`: the 50% inhibitory concentration (IC50) was 1.13 µg/mL (≈ 4.55 µM).

With `CC(C)COc1ccc(-c2nn(-c3ccccc3)cc2C(=O)Nc2nccs2)cc1`, the 50% inhibitory concentration (IC50) is 0.19 µg/mL (≈ 0.454 µM).

On to `CC(C)(C)c1ccc(OCCn2c(N)nc3ccccc32)cc1`, for which the concentration for half-maximal inhibition (IC50) is 1.61 µg/mL (≈ 5.2 µM).

Regarding `CN1CCN(c2ccc(NC(=O)c3cccc(OCc4ccccc4)c3)cc2)CC1`, the 50% inhibitory concentration (IC50) was 21.4 µg/mL (≈ 53.2 µM).

For `COc1ccccc1N1C(=O)c2cccc3cc([N+](=O)[O-])cc(c23)C1=O`, the IC50 was 0.16 µg/mL (≈ 0.459 µM).

For the compound `COC(=O)c1c(NC(=O)c2c(F)c(F)c(F)c(F)c2F)sc2c1CCCCC2`, the half-maximal inhibitory concentration (IC50) is 0.36 µg/mL (≈ 0.858 µM).

Turning to `Cc1ccc(NC(=O)C(C)NS(=O)(=O)c2ccc(Cl)cc2)cc1Cl` (stereo not given), the half-maximal inhibitory concentration (IC50) was 2.85 µg/mL (≈ 7.36 µM).

For the compound `Cc1cccc(Nc2nc(-c3ccccn3)cs2)n1`, the concentration for half-maximal inhibition (IC50) was under 0.1 µg/mL.

As for `COc1ccc(C(=O)N=Nc2c(O)[nH]c3ccc(Br)cc23)cc1`, the IC50 was 19.9 µg/mL (≈ 53.1 µM).

Turning to `COC(=O)CSc1nc(-c2ccccc2)c(-c2ccccc2)o1`, the IC50 was 5.58 µg/mL (≈ 17.1 µM).

For the compound `O=[N+]([O-])c1ncn(Cc2ccc(F)cc2Cl)n1`, the IC50 was 6.92 µg/mL (≈ 27 µM).

Turning to `Cc1cc2ncn(Cc3ccccc3C)c2cc1C`, the IC50 was 11.1 µg/mL (≈ 44.4 µM).

Turning to `Cc1cc(C)cc(NC(=O)COc2cccc(C=O)c2)c1`, the 50% inhibitory concentration (IC50) is 3.3 µg/mL (≈ 11.6 µM).

As for `Oc1ccc(Cl)cc1CNc1nc2ccccc2[nH]1`, the half-maximal inhibitory concentration (IC50) is 12.1 µg/mL (≈ 44.3 µM).

Regarding `Cc1ccc(C(=O)NCCC23CC4CC(CC(C4)C2)C3)cc1`, the concentration for half-maximal inhibition (IC50) is 0.18 µg/mL (≈ 0.605 µM).

With `CC(C)(C)NCCCCOc1ccc(Cl)cc1C(C)(C)C`, the 50% inhibitory concentration (IC50) is 3.77 µg/mL (≈ 12.1 µM).

In the case of `COc1cccc2c(C)nc(Nc3nc4ccccc4c(=O)[nH]3)nc12`, the IC50 is > 50 µg/mL (inactive).

Turning to `CC(NC(=S)NC(=O)c1ccc(-c2ccccc2)cc1)c1ccccc1` (stereo not given), the half-inhibitory concentration (IC50) was 5.85 µg/mL (≈ 16.2 µM).

Consider `O=C(CC12CC3CC(CC(C3)C1)C2)Nc1cccc(Cl)c1`, for which the IC50 was 3.34 µg/mL (≈ 11 µM).

For the compound `CCOC(=O)c1ccc(NC(=S)NCCN2CCc3ccccc3C2)cc1`, the half-inhibitory concentration (IC50) was 31 µg/mL (≈ 80.8 µM).

Take `Cc1cc(C)cc(C(=O)NC(=S)Nc2cc([N+](=O)[O-])ccc2O)c1`: the IC50 was 0.4 µg/mL (≈ 1.16 µM).

With `O=C(COc1ccc([N+](=O)[O-])cc1)Nc1ccccc1F`, the IC50 is 18.7 µg/mL (≈ 64.6 µM).

For `Cc1cc(C)nc(/N=C(\N)Nc2cc(Cl)ccc2Oc2ccccc2)n1`, the 50% inhibitory concentration (IC50) is 2.21 µg/mL (≈ 6.01 µM).

`O=C(CCNc1cccc(Cl)c1)c1ccco1`: the IC50 was 3.68 µg/mL (≈ 14.7 µM).

As to `CCOC(=O)Cn1nnc(-c2ccc(OCc3ccccc3F)cc2)n1`, the IC50 is 0.28 µg/mL (≈ 0.786 µM).

Regarding `COC(=O)c1c(C)cc(=O)n2c1[nH]c1ccccc12`, the 50% inhibitory concentration (IC50) was 3.52 µg/mL (≈ 13.7 µM).

Turning to `CCOC(=O)C(Oc1ccc2oc(C)c(C(=O)OC)c2c1)c1ccccc1` (stereo not given), the IC50 is 2.95 µg/mL (≈ 8.01 µM).

As for `OC(COc1ccccc1Cl)CN1CCN(C(c2ccccc2)c2ccccc2)CC1` (stereo not given), the IC50 is 2.51 µg/mL (≈ 5.74 µM).

As to `CC(NCC(O)COc1ccccc1C(C)(C)C)c1ccccc1` (stereo not given), the IC50 is 2.55 µg/mL (≈ 7.79 µM).

As to `CCOc1cccc2cc(-c3nc4ccc(C)cc4[nH]3)c(=O)oc12`, the IC50 is under 0.1 µg/mL.

With `CCOC(=O)COc1ccc(S(=O)(=O)Nc2cc(C)cc(C)c2)cc1`, the IC50 was 4.03 µg/mL (≈ 11.1 µM).

For `COc1ccc(C2CC(=O)C3=C(C2)NC(C)=C(C(=O)Nc2ccccc2C)C3c2coc3ccc(C)cc3c2=O)cc1OC` (stereo not given), the IC50 was 3.7 µg/mL (≈ 6.26 µM).

Turning to `O=C(Nc1cccc(Cl)c1)Nc1ccccc1OC(F)(F)C(F)F`, the IC50 was 0.19 µg/mL (≈ 0.524 µM).

Take `O=C(Nc1nc2ccccc2[nH]1)c1cccc(Cl)c1`: the IC50 is 10.4 µg/mL (≈ 38.3 µM).

In the case of `CCCN(CCC)C(=S)NC(=O)c1ccc(OC)cc1`, the concentration for half-maximal inhibition (IC50) was 2.58 µg/mL (≈ 8.76 µM).

Regarding `O=C(Nc1ccc(Cl)c(C(F)(F)F)c1)c1csc2c1CCCC2`, the half-inhibitory concentration (IC50) was 2.66 µg/mL (≈ 7.39 µM).

Regarding `COc1ccccc1C(=O)Oc1ccc2c(c1)C(C)CC(C)(C)N2` (stereo not given), the 50% inhibitory concentration (IC50) is 4.97 µg/mL (≈ 15.3 µM).

For `CCOC(=O)COc1ccc2c(c1)c(C(=O)OCC)c(C)n2CC`, the IC50 is 0.4 µg/mL (≈ 1.2 µM).
